Test results taken from patent publication US12076306B2, “Prodrugs of fumarates and their use in treating various diseases” (Alkermes Pharma Ireland Limited, priority 2013, dated 2024).
Counter-ions that a name gives are not always drawn.

Assay: Aqueous chemical stability, 100 mM phosphate buffer, HPLC (Table 3)
Format: physicochemical
Details: buffer phosphate (100 mM), 37° C., half-lives >360 min estimated from initial slope
Protocol: Stock solutions of the compounds in acetonitrile or acetonitrile/methanol were prepared at 20 mg/mL and 20 μL, spiked into 3 mL of buffer phosphate (100 mM) and incubated at 37° C. Aliquots (50 μL) were sampled at different time points and diluted 20 fold with ammonium formate (pH 3.5)/acetonitrile. The diluted samples were analyzed by HPLC. The peak areas corresponding to the compounds were plotted against time and the data were fitted to a first-order mono-exponential decay where the rate constant and the half-life were determined (Table 3).

pH 8 (t ½, min) [min] | Compound
45 | COC(=O)/C=C/C(=O)OCC[N+](C)(C)C [Compound 4, (E)-2-((4-methoxy-4-oxobut-2-enoyl)oxy)-N,N,N-trimethylethanaminium iodide]
24 | COC(=O)/C=C/C(=O)OCCN1CCC(F)(F)CC1 [Compound 5, 2-(4,4-difluoropiperidin-1-yl)ethyl methyl fumarate hydrochloride]
67.0 | COC(=O)/C=C/C(=O)OCCS(C)(=O)=O [Compound 10, Methyl (2-(methylsulfonyl)ethyl) fumarate]
>240 | COC(=O)/C=C/C(=O)OCCN1CCS(=O)(=O)CC1 [Compound 11, 2-(1,1-dioxidothiomorpholino)ethyl methyl fumarate hydrochloride]
3.0 | COC(=O)/C=C/C(=O)OCCN1CCCCC1 [Compound 15, Methyl (2-(piperidin-1-yl)ethyl) fumarate hydrochloride]
20.0 | COC(=O)/C=C/C(=O)OCCN1CCOCC1 [Compound 16, Methyl (2-morpholinoethyl) fumarate hydrochloride]
11.0 | COC(=O)/C=C/C(=O)OCCN1CCC2(CC1)OCCO2 [Compound 17, 2-(1,4-dioxa-8-azaspiro[4.5]decan-8-yl)ethyl methyl fumarate hydrochloride]
5.0 | COC(=O)/C=C/C(=O)OCCN1CCCC1 [Compound 18, Methyl (2-(pyrrolidin-1-yl)ethyl) fumarate hydrochloride]
6.0 | COC(=O)/C=C/C(=O)OCCN(C)C [Compound 19, 2-(dimethylamino)ethyl methyl fumarate hydrochloride]
5.0 | CCN(CC)CCOC(=O)/C=C/C(=O)OC [Compound 20, 2-(diethylamino)ethyl methyl fumarate hydrochloride]
120 | CCN(CC)C(=O)COC(=O)/C=C/C(=O)OC [Reference Compound A, 2-(diethylamino)-2-oxoethyl methyl fumarate, reference compound]

Compound | pH 8 (t ½, min) [min]
COC(=O)/C=C/C(=O)OCCN(CC(=O)O)CC(=O)O [Compound 1, (E)-2,2′-((2-((4-methoxy-4-oxobut-2-enoyl)oxy)ethyl)azanediyl)diacetic acid hydrochloride] | 15
COC(=O)/C=C/C(=O)OC(C)CN(C)C (centres unmarked) [Compound 6, 1-(dimethylamino)propan-2-yl methyl fumarate hydrochloride] | 2.0
COC(=O)/C=C/C(=O)OCCN1CCSCC1 [Compound 7, Methyl (2-thiomorpholinoethyl) fumarate hydrochloride] | 26.0
COC(=O)/C=C/C(=O)OCCNc1ccccc1 [Compound 8, Methyl (2-(phenylamino)ethyl) fumarate hydrochloride] | 36.0
COC(=O)/C=C/C(=O)OCC(C)(C)N(C)C [Compound 9, 2-(dimethylamino)-2-methylpropyl methyl fumarate hydrochloride] | 7.0

Assay: Aqueous chemical stability, 50 mM phosphate buffer pH 8, HPLC-UV (Table 4)
Format: physicochemical
Details: 50 mM buffer phosphate pH 8, 37° C., HPLC UV 211 nm
Protocol: Stock solutions of the compounds in acetonitrile or acetonitrile/MeOH were prepared at 0.05M. A 0.010 mL aliquot of the stock was spiked into 1 mL of 50 mM buffer phosphate pH 8 and incubated at 37° C. Typically, aliquots (0.010 mL) were sampled at different time points and immediately injected in the HPLC with UV detection (211 nm). The peak areas corresponding to the compounds were plotted against time and the data were fitted to a first-order mono-exponential decay where the rate constant and the half-life were determined from the slope (Table 4).

Compound | pH 8 (t ½, min) [min]
COC(=O)/C=C/C(=O)OCCN(CC(=O)O)CC(=O)O [Compound 1, (E)-2,2′-((2-((4-methoxy-4-oxobut-2-enoyl)oxy)ethyl)azanediyl)diacetic acid hydrochloride] | 15
COC(=O)/C=C/C(=O)OCC[N+](C)(C)C [Compound 4, (E)-2-((4-methoxy-4-oxobut-2-enoyl)oxy)-N,N,N-trimethylethanaminium iodide] | 30
COC(=O)/C=C/C(=O)OCCN1CCC(F)(F)CC1 [Compound 5, 2-(4,4-difluoropiperidin-1-yl)ethyl methyl fumarate hydrochloride] | 24
COC(=O)/C=C/C(=O)OC(C)CN(C)C (centres unmarked) [Compound 6, 1-(dimethylamino)propan-2-yl methyl fumarate hydrochloride] | 2
COC(=O)/C=C/C(=O)OCCN(C)C [Compound 19, 2-(dimethylamino)ethyl methyl fumarate hydrochloride] | 117
COC(=O)/C=C/C(=O)OCCN1C(=O)C2CC2C1=O (centres unmarked) [Compound 22, 2-(2,4-Dioxo-3-azabicyclo[3.1.0]hexan-3-yl)ethyl methyl fumarate] | 144
COC(=O)/C=C/C(=O)OCCN1C(=O)[C@@H](C)[C@@H](C)C1=O [Compound 23, 2-((3R,4S)-3,4-Dimethyl-2,5-dioxopyrrolidin-1-yl)ethyl methyl fumarate] | 186
COC(=O)/C=C/C(=O)OCC[N+]1([O-])CCOCC1 [Compound 26, (E)-4-(2-((4-methoxy-4-oxobut-2-enoyl)oxy)ethyl)morpholine 4-oxide] | 129
COC(=O)/C=C/C(=O)OCCN1C(=O)COCC1=O [Compound 27, 2-(3,5-dioxomorpholino)ethyl methyl fumarate] | 37
COC(=O)/C=C/C(=O)OCCN1CCOC(C)(C)C1 [Compound 28, 2-(2,2-dimethylmorpholino)ethyl methyl fumarate hydrochloride] | <10
COC(=O)/C=C/C(=O)OCCN1CC(C)OC(C)C1 (centres unmarked) [Compound 29, 2-(2,6-dimethylmorpholino)ethyl methyl fumarate hydrochloride] | <10
COC(=O)/C=C/C(=O)OCCN1CCOCC1=O [Compound 30, Methyl (2-(3-oxomorpholino)ethyl) fumarate] | 229
COC(=O)/C=C/C(=O)OCCNC(=O)OC(C)(C)C [Compound 48, 2-((tert-butoxycarbonyl)amino)ethyl methyl fumarate] | 220

Continued, values first:

pH 8 (t ½, min) [min] | Compound
26 | COC(=O)/C=C/C(=O)OCCN1CCOC(=O)C1 [Compound 31, Methyl (2-(2-oxomorpholino)ethyl) fumarate hydrochloride]
13 | COC(=O)/C=C/C(=O)OCCN1CC2CCC(C1)O2 [Compound 32, 2-(8-Oxa-3-azabicyclo[3.2.1]octan-3-yl)ethyl methyl fumarate hydrochloride]
115 | COC(=O)/C=C/C(=O)OCCN1CCOC(CN(C)C)C1 (centres unmarked) [Compound 33, 2-(2-((Dimethylamino)methyl)morpholino)ethyl methyl fumarate hydrochloride]
182 | COC(=O)/C=C/C(=O)OCCN1C(=O)CC(C)(C)C1=O [Compound 37, 2-(3,3-Dimethyl-2,5-dioxopyrrolidin-1-yl)ethyl methyl fumarate]
201 | COC(=O)/C=C/C(=O)OCCN1CCCC1=O [Compound 38, Methyl (2-(2-oxopyrrolidin-1-yl)ethyl) fumarate]
183 | COC(=O)/C=C/C(=O)OCCN1CCOC1=O [Compound 39, Methyl (2-(2-oxooxazolidin-3-yl)ethyl) fumarate]
203 | COC(=O)/C=C/C(=O)OCCN1C(=O)NC(C)(C)C1=O [Compound 40, 2-(4,4-Dimethyl-2,5-dioxoimidazolidin-1-yl)ethyl methyl fumarate]
158 | CCC(=O)N(CCOC(=O)/C=C/C(=O)OC)C(=O)CC [Compound 42, Methyl (2-(N-propionylpropionamido)ethyl) fumarate]
177.5 | COC(=O)/C=C/C(=O)OCCNC(C)=O [Compound 43, 2-Acetamidoethyl methyl fumarate]
145 | COC(=O)/C=C/C(=O)OCCN(C(C)=O)C(C)=O [Compound 44, 2-(N-Acetylacetamido)ethyl methyl fumarate]
1010 | COC(=O)/C=C/C12COC(C)(CO1)CO2 [Compound 130, (E)-Methyl 3-(4-methyl-2,5,7-trioxabicyclo[2.2.2]octan-1-yl)acrylate]
96 | C#CCOC(=O)/C=C/C(=O)OC [Compound 131, Methyl prop-2-yn-1-yl fumarate]
246 | COC(=O)/C=C/C(=O)OCCCN1C(=O)CCC1=O [Compound 133, 3-(2,5-Dioxopyrrolidin-1-yl)propyl methyl fumarate]

Assay: Physical stability in crystalline form by thermogravimetric analysis (TGA)
Format: physicochemical
Details: DMF loss in less than 4 hours
Protocol: The physical stability of compounds of the present invention and DMF were measured via thermogravimetric analysis (TGA).

weight loss at 60° C. vs time | Compound
no change | COC(=O)/C=C/C(=O)OCCN1C(=O)CCC1=O [Compound 14, 2-(2,5-dioxopyrrolidin-1-yl)ethyl methyl fumarate]
~100% | COC(=O)/C=C/C(=O)OC [DMF, Dimethyl fumarate, reference compound]
